IC50, Activity and inhibition data for 17 compounds are collected here from ChEMBL document CHEMBL1144752, “Synthesis and antioxidant properties of novel N-methyl-1,3,4-thiadiazol-2-amine and 4-methyl-2H-1,2,4-triazole-3(4H)-thione derivatives of benzimidazole class” (Bioorg Med Chem, 2008).

Active and inactive are the calls of the source. The calls are words filed in the database; no cut-off is given here.

The test system of test [1] is Radical scavenging activity. As to the kind of experiment: Antioxidant activity assessed as DPPH free radical scavenging activity after 30 mins. The test is classed as functional. In general terms: DPPH is a stable violet radical that fades when it is reduced.
The subject of test [2] is Liver microsomes. In words: Antioxidant activity in albino Wistar rat liver microsomes assessed as inhibition of NADPH-dependent lipid peroxidation at 1000 uM. The settings on record: Microsome. The class given is functional. In general terms: Liver microsomes are a subcellular fraction often used to study metabolism.
Test [3] has as its system Liver microsomes. As to the kind of experiment: Antioxidant activity in rat liver microsomes assessed as inhibition of ethoxyresorufin O-deethylase activity at 1000 uM. The test is classed as functional. The conditions noted are these: Microsome.
Test [4] in a line: Antioxidant activity assessed as inhibition of superoxide radical anion formation at 0.1 mM. The class given is functional.
The subject of test [5] is Liver microsomes. As to the kind of experiment: Antioxidant activity in rat liver microsomes assessed as inhibition of ethoxyresorufin O-deethylase activity. The class given is functional, Microsome.

The term IC50 denotes the concentration needed to halve the response being measured. What is called inhibition is the change of the read-out against control, counted positive when it falls.

With `CNC(=S)NNC(=O)Cn1c(-c2ccccc2)nc2ccccc21`, the IC50 in test [1] came to 26 µM. In addition, the Activity came to 19.2 nmol/mg/min in test [2] and 51 pmol/mg/min in test [3]. Besides, the inhibition in test [4] was 22%.

For the compound `CNc1nnc(Cn2c(-c3ccc(OC)cc3)nc3ccccc32)s1`, in test [1], the IC50 was above 1000 µM. Further, the figures for the Activity in test [2] and in test [3] were 14.4 nmol/mg/min and 34.3 pmol/mg/min, respectively. The inhibition in test [2] came to 11%; in test [4], 5%.

In the case of `CNC(=S)NNC(=O)Cn1c(-c2ccc(Cl)cc2)nc2ccccc21`, in test [1], the 50% inhibitory concentration (IC50) is 30 µM. Moreover, the Activity in test [2] came to 13.1 nmol/mg/min; in test [3] it was 28.3 pmol/mg/min. The inhibition was 20% in test [2] and 38% in test [4].

As to `Cn1c(Cn2c(-c3ccc(OCc4ccccc4)cc3)nc3ccccc32)n[nH]c1=S`, the half-maximal inhibitory concentration (IC50) in test [1] came out at 605 µM. For the same compound, the Activity was 69.6 nmol/mg/min in test [2] and 18 pmol/mg/min in test [3]. Also, in test [4], the inhibition stood at 5%.

For the compound `COc1ccc(NC(=S)NNC(=O)Cn2c(-c3ccncc3)nc3ccccc32)cc1`, the 50% inhibitory concentration (IC50) in test [1] was 12 µM.

`CNc1nnc(Cn2c(-c3ccc(O)cc3)nc3ccccc32)s1`: the 50% inhibitory concentration (IC50) in test [1] is above 1000 µM. In addition, the Activity in test [2] worked out at 129 nmol/mg/min; in test [3] it was 36.1 pmol/mg/min. Moreover, the inhibition in test [4] amounted to 5%.

With `CNC(=S)NNC(=O)Cn1c(-c2ccc(OC)c(OC)c2)nc2cc(Cl)c(Cl)cc21`, the IC50 in test [5] was found to be 840 µM; in test [1], 55 µM. Also, the Activity in test [2] was 14.8 nmol/mg/min; in test [3], 12.3 pmol/mg/min. For the same compound, the inhibition in test [3] came out at 70%; in test [4], 26%.

Consider `O=C(Cn1c(-c2ccncc2)nc2ccccc21)NNC(=S)Nc1ccccc1`, for which the half-inhibitory concentration (IC50) in test [1] worked out at 13 µM.

As to `CNc1nnc(Cn2c(-c3ccc(Cl)cc3)nc3ccccc32)s1`, the Activity in test [2] amounted to 16.1 nmol/mg/min; in test [3], 2.46 pmol/mg/min. Besides, the inhibition in test [4] was 21%.

In the case of `CNC(=S)NNC(=O)Cn1c(-c2ccc(OC)cc2)nc2ccccc21`, in test [1], the IC50 worked out at 43 µM. Besides, the Activity in test [2] was 16.1 nmol/mg/min; in test [3] it was 34.5 pmol/mg/min. For the same compound, the outcome in test [4] was inactive.

As to `Cc1cc(C(C)(C)C)c(O)c(C(C)(C)C)c1` [BUTYLATED HYDROXYTOLUENE], the half-inhibitory concentration (IC50) in test [1] was determined as 54 µM. In addition, the Activity in test [2] is 5.68 nmol/mg/min.

On to `CNc1nnc(Cn2c(-c3ccc(OC)c(OC)c3)nc3cc(Cl)c(Cl)cc32)s1`, for which, in test [1], the concentration for half-maximal inhibition (IC50) was above 1000 µM. Besides, the Activity was found to be 11.8 nmol/mg/min in test [2] and 12.2 pmol/mg/min in test [3]. Moreover, the inhibition was determined as 28% in test [2], 66% in test [3] and 31% in test [4].

In the case of `CNC(=S)NNC(=O)Cn1c(-c2ccc(OCc3ccccc3)cc2)nc2ccccc21`, the 50% inhibitory concentration (IC50) in test [1] is 74 µM. The Activity in test [2] stood at 96.6 nmol/mg/min; in test [3], 28.6 pmol/mg/min. Further, the inhibition in test [4] worked out at 5%.

For `Cn1c(=O)c2c(ncn2C)n(C)c1=O` [CAFFEINE], the half-inhibitory concentration (IC50) in test [5] was determined as 520 µM. Besides, in test [3], the Activity worked out at 8.31 pmol/mg/min and the inhibition amounted to 80%.

As for `COc1ccc(-c2nc3cc(Cl)c(Cl)cc3n2Cc2n[nH]c(=S)n2C)cc1OC`, the IC50 in test [1] is 271 µM. The Activity in test [2] was 27.5 nmol/mg/min; in test [3] it was 18.3 pmol/mg/min. For the same compound, the outcome in test [4] was inactive.

Turning to `COc1ccc(-c2nc3ccccc3n2Cc2n[nH]c(=S)n2C)cc1`, the IC50 in test [1] is 140 µM. Besides, the Activity in test [2] worked out at 23.1 nmol/mg/min; in test [3] it was 15.8 pmol/mg/min. Also, the inhibition in test [4] was 5%.

Regarding `Cn1c(Cn2c(-c3ccc(Cl)cc3)nc3ccccc32)n[nH]c1=S`, the half-maximal inhibitory concentration (IC50) in test [5] came to 450 µM; in test [1] it was 462 µM. The Activity in test [2] stood at 26.6 nmol/mg/min; in test [3], 7.89 pmol/mg/min. Also, the inhibition in test [3] was found to be 81%. The result in test [4] was inactive.
